Assay results: the NIST ThermoML archive (doi:10.1021/je8001305)

Experiment: xn = mol fraction of the nth substance listed
Conditions: Liquid, Vibrating tube method

CC(C)O [propan-2-ol] + O
Conditions | mass density [kg/m3]
300.08 K, 7 kPa, x1 = 0.2483 | 895.51
300.08 K, 7.3 kPa, x1 = 0.7258 | 805.5
300.08 K, 88.2 kPa, x1 = 0.7258 | 805.57
300.08 K, 146.2 kPa, x1 = 0.2483 | 895.5
300.08 K, 303 kPa, x1 = 0.7258 | 805.78
300.08 K, 381.3 kPa, x1 = 0.2483 | 895.67
300.08 K, 565.1 kPa, x1 = 0.7258 | 806
300.08 K, 764.9 kPa, x1 = 0.2483 | 895.89
300.08 K, 1101.1 kPa, x1 = 0.2483 | 896.11
300.08 K, 1126.2 kPa, x1 = 0.7258 | 806.42
300.08 K, 1556.8 kPa, x1 = 0.2483 | 896.32
300.08 K, 1702.5 kPa, x1 = 0.7258 | 806.92
300.08 K, 1921.9 kPa, x1 = 0.2483 | 896.56
300.08 K, 2181.5 kPa, x1 = 0.2483 | 896.86
300.08 K, 2239.8 kPa, x1 = 0.7258 | 807.33
300.08 K, 2610.1 kPa, x1 = 0.2483 | 897.09
300.08 K, 2722.7 kPa, x1 = 0.7258 | 807.73
300.08 K, 3080.5 kPa, x1 = 0.2483 | 897.32
300.08 K, 3196 kPa, x1 = 0.7258 | 808.11
300.08 K, 3522.3 kPa, x1 = 0.2483 | 897.58
300.08 K, 3715.6 kPa, x1 = 0.7258 | 808.53
300.08 K, 4082.6 kPa, x1 = 0.2483 | 897.87
300.08 K, 4231.5 kPa, x1 = 0.7258 | 808.93
300.08 K, 4587.1 kPa, x1 = 0.7258 | 809.31
300.08 K, 4663.3 kPa, x1 = 0.2483 | 898.17
300.08 K, 5151.3 kPa, x1 = 0.2483 | 898.42
300.08 K, 5314.6 kPa, x1 = 0.7258 | 809.85
300.08 K, 5562.5 kPa, x1 = 0.2483 | 898.65
300.08 K, 5793.2 kPa, x1 = 0.7258 | 810.24
300.08 K, 5980.5 kPa, x1 = 0.2483 | 898.85
300.08 K, 6301.2 kPa, x1 = 0.7258 | 810.63
300.08 K, 6414.3 kPa, x1 = 0.2483 | 899.11
300.08 K, 6754.8 kPa, x1 = 0.2483 | 899.33
300.08 K, 6783.9 kPa, x1 = 0.7258 | 811.02
300.08 K, 7246.8 kPa, x1 = 0.2483 | 899.56
300.08 K, 7297.6 kPa, x1 = 0.7258 | 811.43
300.08 K, 7636.7 kPa, x1 = 0.2483 | 899.78
300.08 K, 7804.4 kPa, x1 = 0.7258 | 811.81
300.08 K, 8131.6 kPa, x1 = 0.2483 | 900.04
300.08 K, 8342.2 kPa, x1 = 0.7258 | 812.23
300.08 K, 8662.8 kPa, x1 = 0.2483 | 900.28
300.08 K, 8818 kPa, x1 = 0.7258 | 812.6
300.08 K, 9087.3 kPa, x1 = 0.2483 | 900.54
300.08 K, 9330.1 kPa, x1 = 0.7258 | 813
300.08 K, 9562.3 kPa, x1 = 0.2483 | 900.79
300.08 K, 9918.9 kPa, x1 = 0.7258 | 813.45
300.1 K, 7.2 kPa, x1 = 0.4939 | 837.98
300.1 K, 233.4 kPa, x1 = 0.4939 | 838.18
300.1 K, 503 kPa, x1 = 0.4939 | 838.33
300.1 K, 946.6 kPa, x1 = 0.4939 | 838.71
300.1 K, 1545.3 kPa, x1 = 0.4939 | 839.06
300.1 K, 1902.2 kPa, x1 = 0.4939 | 839.36
300.1 K, 2303.5 kPa, x1 = 0.4939 | 839.65
300.1 K, 2724.6 kPa, x1 = 0.4939 | 839.96
300.1 K, 3136.5 kPa, x1 = 0.4939 | 840.26
300.1 K, 3567.9 kPa, x1 = 0.4939 | 840.56
300.1 K, 3995.8 kPa, x1 = 0.4939 | 840.87
300.1 K, 4436.2 kPa, x1 = 0.4939 | 841.18
300.1 K, 4835.5 kPa, x1 = 0.4939 | 841.48
300.1 K, 5262 kPa, x1 = 0.4939 | 841.77
300.1 K, 5699.8 kPa, x1 = 0.4939 | 842.07
300.1 K, 6161 kPa, x1 = 0.4939 | 842.39
300.1 K, 6588.4 kPa, x1 = 0.4939 | 842.68
300.1 K, 7053 kPa, x1 = 0.4939 | 843
300.1 K, 7437.9 kPa, x1 = 0.4939 | 843.28
300.1 K, 7862 kPa, x1 = 0.4939 | 843.57
300.1 K, 8248.5 kPa, x1 = 0.4939 | 843.86
300.1 K, 8704.4 kPa, x1 = 0.4939 | 844.15
300.1 K, 9260.6 kPa, x1 = 0.4939 | 844.49
300.1 K, 9966.4 kPa, x1 = 0.4939 | 845.04
325.09 K, 28.6 kPa, x1 = 0.4939 | 814.94
325.09 K, 65.4 kPa, x1 = 0.4939 | 814.96
325.09 K, 303 kPa, x1 = 0.4939 | 815.2
325.09 K, 645.3 kPa, x1 = 0.4939 | 815.47
325.09 K, 1004.8 kPa, x1 = 0.4939 | 815.8
325.09 K, 1391.9 kPa, x1 = 0.4939 | 816.13
325.09 K, 1788.1 kPa, x1 = 0.4939 | 816.48
325.09 K, 2242 kPa, x1 = 0.4939 | 816.83
325.09 K, 2881.1 kPa, x1 = 0.4939 | 817.33
325.09 K, 3904.6 kPa, x1 = 0.4939 | 818.19
325.09 K, 4242.1 kPa, x1 = 0.4939 | 818.51
325.09 K, 4784.4 kPa, x1 = 0.4939 | 818.94
325.09 K, 5116.8 kPa, x1 = 0.4939 | 819.26
325.09 K, 5507.3 kPa, x1 = 0.4939 | 819.61
325.09 K, 5912.2 kPa, x1 = 0.4939 | 819.93
325.09 K, 6322.1 kPa, x1 = 0.4939 | 820.28
325.09 K, 6773 kPa, x1 = 0.4939 | 820.6
325.09 K, 7214.5 kPa, x1 = 0.4939 | 820.97
325.09 K, 7613.3 kPa, x1 = 0.4939 | 821.31
325.09 K, 8080.5 kPa, x1 = 0.4939 | 821.7
325.09 K, 8603.1 kPa, x1 = 0.4939 | 822.11
325.09 K, 9197.3 kPa, x1 = 0.4939 | 822.51
325.09 K, 9561.4 kPa, x1 = 0.4939 | 822.86
325.1 K, 27.3 kPa, x1 = 0.2483 | 874.07
325.1 K, 72.6 kPa, x1 = 0.2483 | 874.13
325.1 K, 410.3 kPa, x1 = 0.2483 | 874.37
325.1 K, 962.1 kPa, x1 = 0.2483 | 874.71
325.1 K, 1343 kPa, x1 = 0.2483 | 875.01
325.1 K, 1859.5 kPa, x1 = 0.2483 | 875.37
325.1 K, 2332.6 kPa, x1 = 0.2483 | 875.6
325.1 K, 2826.4 kPa, x1 = 0.2483 | 875.91
325.1 K, 3319.4 kPa, x1 = 0.2483 | 876.24
325.1 K, 3776.3 kPa, x1 = 0.2483 | 876.52
325.1 K, 4236.7 kPa, x1 = 0.2483 | 876.83
